One data set deals with T1, BCRP (Homo sapiens, UniProt Q9UNQ0).
T1 construct: host or cells: MDCK (BCRP-MDCK)
T1 sequence (Q9UNQ0 1-655): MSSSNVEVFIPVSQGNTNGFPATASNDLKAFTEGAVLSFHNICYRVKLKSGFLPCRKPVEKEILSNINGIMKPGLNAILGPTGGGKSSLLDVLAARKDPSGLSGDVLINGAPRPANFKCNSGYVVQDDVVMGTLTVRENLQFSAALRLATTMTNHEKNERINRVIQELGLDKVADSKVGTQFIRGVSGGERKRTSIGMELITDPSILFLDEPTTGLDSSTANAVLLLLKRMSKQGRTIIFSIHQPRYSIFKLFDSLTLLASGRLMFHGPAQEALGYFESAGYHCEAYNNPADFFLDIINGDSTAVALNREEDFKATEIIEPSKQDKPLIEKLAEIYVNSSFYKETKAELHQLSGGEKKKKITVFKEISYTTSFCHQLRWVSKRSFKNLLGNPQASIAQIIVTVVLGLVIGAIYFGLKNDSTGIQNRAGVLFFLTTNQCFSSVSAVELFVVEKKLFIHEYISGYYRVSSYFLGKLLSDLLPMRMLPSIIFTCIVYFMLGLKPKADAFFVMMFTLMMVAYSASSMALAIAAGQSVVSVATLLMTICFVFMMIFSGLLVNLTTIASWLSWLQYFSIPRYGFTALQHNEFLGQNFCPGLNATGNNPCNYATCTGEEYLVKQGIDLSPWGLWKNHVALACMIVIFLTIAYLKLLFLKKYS
Briefly: Substrate potential for BCRP, bidirectional permeability in BCRP-MDCK. It counts as in vitro ADME. The settings on record: for Concentration in the receiver compartment: 5 µM, BCRP-MDCK and MDCK cells, A to B and B to A, Papp and efflux ratio could not be calculated; for as a Substrate: BCRP.

In another data set the target is T2, MATE2K (Homo sapiens, UniProt Q86VL8).
T2 construct: host or cells: MDCK
T2 sequence (Q86VL8 1-566 isoform Q86VL8-3): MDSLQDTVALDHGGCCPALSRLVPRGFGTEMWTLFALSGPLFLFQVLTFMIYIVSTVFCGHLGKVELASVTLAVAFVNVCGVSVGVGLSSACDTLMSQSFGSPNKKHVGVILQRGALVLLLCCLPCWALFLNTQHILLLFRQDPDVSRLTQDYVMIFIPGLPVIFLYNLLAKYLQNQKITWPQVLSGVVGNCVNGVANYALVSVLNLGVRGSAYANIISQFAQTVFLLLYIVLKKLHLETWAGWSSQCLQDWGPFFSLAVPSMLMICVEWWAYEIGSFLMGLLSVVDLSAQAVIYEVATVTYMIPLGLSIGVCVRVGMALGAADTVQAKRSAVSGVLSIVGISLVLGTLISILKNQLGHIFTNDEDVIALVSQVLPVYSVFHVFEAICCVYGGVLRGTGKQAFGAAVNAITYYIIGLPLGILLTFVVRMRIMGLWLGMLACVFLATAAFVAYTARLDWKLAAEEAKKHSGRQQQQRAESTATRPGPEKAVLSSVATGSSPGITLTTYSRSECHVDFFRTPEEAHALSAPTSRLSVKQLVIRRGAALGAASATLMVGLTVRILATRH
Briefly: Transporter inhibition. Format: in vitro ADME. The conditions noted are these: read-out: as an Inhibitor, IC50.

A further data set concerns the target T3, MATE1 (Homo sapiens, UniProt Q96FL8).
T3 construct: host or cells: MDCK
T3 sequence (Q96FL8 1-570): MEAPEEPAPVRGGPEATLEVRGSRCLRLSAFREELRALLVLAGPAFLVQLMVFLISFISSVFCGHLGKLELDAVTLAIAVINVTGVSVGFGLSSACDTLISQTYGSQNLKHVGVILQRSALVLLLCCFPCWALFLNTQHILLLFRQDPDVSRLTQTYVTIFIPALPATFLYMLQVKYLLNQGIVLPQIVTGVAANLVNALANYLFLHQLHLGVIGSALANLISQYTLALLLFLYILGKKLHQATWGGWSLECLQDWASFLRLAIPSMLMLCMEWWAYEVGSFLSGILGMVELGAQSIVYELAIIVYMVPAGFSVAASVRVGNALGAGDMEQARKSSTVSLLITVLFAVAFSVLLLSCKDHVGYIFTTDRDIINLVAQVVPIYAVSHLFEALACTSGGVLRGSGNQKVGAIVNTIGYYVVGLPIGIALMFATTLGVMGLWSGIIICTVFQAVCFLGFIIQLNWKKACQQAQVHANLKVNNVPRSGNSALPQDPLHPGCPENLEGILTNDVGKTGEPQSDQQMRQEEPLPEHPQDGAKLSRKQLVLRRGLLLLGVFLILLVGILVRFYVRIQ
The experiment in a line: Transporter inhibition. Format: in vitro ADME. The settings on record: read-out: as an Inhibitor, IC50.

A short description of data set [1]: Apparent permeability through Caco-2 cell monolayers. The settings on record: human, Caco-2. As for the experimental part:
(§1) ^14C-EBO permeability in Caco-2 Cells (MDR1/Protein Glycoprotein or P-gp) was determined using methodologies described previously. The apparent permeability of ^14C-EBO was determined in both the apical to basolateral and the basolateral to apical directions, in triplicate, at final concentrations of 1, 10, and 100 μM. Cell monolayers were incubated with ^14C-EBO at 37 °C for 1, 2, 3, and 4 h. The transepithelial electrical resistance (TEER) values of the monolayers prior to and following each experiment were measured to confirm the integrity of the Caco-2 cell monolayers. The apparent permeability of ^14C-EBO (at a final concentration of 10 μM) was determined in both the apical to basolateral and basolateral to apical directions under the same conditions as previously described in the presence of P-gp inhibitors cyclosporine A (10 μM) and verapamil (100 μM) in the donor compartment.
On the technique in general: Passage across Caco-2 layers is used to estimate intestinal permeability.

The test system of another data set is Caco-2 cell monolayers. Described as above. The conditions noted are these: in vitro. The protocol: as §1
For another data set, the system named is CYP3A4. Briefly: Automated time-dependent inhibition assay in HLM. It counts as in vitro ADME, human. The conditions noted are these: EBO 30 and 50 µM, 30 min preincubation with NADPH. The protocol: (§2) The effect of EBO (30 and 50 µM) on time-dependent inhibition of CYP3A4 (testosterone and midazolam substrate) and CYP2D6 ([…] substrate) was determined using methodologies described previously. The Genesis robot (Tecan, Reading, UK) running Gemini software (https://www.tecan.com) was used to perform a fully automated TDI assay. The assay ran a preincubation (30 min at 37 °C, 1 mg/mL HLM incubation containing 1 mM NADPH and EBO) and a secondary incubation (containing 50 µL aliquot from the preincubation, 1 mM NADPH, and substrates for CYP3A4 and CYP2D6). At the end of the secondary incubation (15 min at 37 °C), an aliquot (50 µL) was removed and added to 100 µL of methanol to quench the reaction. Quenched samples were then chilled at −20 °C for 2 h, centrifuged at 2000× g for 15 min, and the supernatants were transferred to microtiter plates for LC/MS-MS analysis.

The target of data set [2] is T4, P-gp (Homo sapiens, UniProt P08183). The experiment in a line: Caco-2 efflux ratio without/with P-gp inhibitor (P-gp substrate). It counts as in vitro ADME. The arrangement: host or cells: Caco-2. The settings on record: for efflux ratio: Caco-2, 1, 10, 100 µM, 1–4 h. As for the experimental part: as §1
T4 sequence (P08183 whole entry): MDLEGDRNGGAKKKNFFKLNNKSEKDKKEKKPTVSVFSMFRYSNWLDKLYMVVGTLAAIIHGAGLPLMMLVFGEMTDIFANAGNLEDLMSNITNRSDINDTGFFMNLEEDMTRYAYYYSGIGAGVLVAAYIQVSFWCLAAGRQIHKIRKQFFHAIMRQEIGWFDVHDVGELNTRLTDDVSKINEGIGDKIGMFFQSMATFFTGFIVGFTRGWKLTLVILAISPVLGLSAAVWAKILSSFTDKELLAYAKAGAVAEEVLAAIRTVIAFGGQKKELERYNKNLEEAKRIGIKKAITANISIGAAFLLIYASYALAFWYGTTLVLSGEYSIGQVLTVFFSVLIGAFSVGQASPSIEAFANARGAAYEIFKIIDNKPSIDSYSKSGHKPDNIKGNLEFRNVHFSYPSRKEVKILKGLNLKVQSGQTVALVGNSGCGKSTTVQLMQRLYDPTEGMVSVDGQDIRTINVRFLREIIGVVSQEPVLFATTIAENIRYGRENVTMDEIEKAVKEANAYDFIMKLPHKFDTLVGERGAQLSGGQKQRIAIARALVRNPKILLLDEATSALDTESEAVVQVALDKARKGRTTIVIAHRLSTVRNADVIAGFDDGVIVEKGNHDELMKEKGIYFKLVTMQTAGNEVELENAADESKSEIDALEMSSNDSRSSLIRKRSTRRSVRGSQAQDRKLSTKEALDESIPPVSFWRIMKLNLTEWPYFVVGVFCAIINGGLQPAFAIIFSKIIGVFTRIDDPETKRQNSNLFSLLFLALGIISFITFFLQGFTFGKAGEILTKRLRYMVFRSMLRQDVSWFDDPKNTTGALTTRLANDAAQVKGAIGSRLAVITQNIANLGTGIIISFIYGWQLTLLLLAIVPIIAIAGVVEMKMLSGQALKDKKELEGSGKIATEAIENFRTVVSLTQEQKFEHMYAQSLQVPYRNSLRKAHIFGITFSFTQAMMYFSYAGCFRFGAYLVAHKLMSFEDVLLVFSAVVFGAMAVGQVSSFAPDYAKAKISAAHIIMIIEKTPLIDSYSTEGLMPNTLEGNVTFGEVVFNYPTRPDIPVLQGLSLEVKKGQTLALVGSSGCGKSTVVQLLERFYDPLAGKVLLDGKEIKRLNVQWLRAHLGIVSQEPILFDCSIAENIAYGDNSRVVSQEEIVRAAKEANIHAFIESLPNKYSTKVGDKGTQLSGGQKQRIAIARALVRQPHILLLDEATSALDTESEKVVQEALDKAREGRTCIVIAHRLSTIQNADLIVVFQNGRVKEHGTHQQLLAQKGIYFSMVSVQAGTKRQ
For data set [3], the target named is T4, P-gp. Briefly: Effect on P-gp mediated transport of 3H-digoxin in Caco-2. It counts as in vitro ADME. The arrangement: host or cells: Caco-2. The protocol:
The concentrations of each radiolabeled compound in the resulting samples were determined using liquid scintillation counting (LSC).

For a further data set, the system named is major CYP enzymes. Briefly: Stability studies (CYP substrate potential, hepatic microsomes). It counts as in vitro ADME.
The target of another data set is T5, CYP2D6 (Homo sapiens, UniProt P10635).
T5 construct: Characterized, pooled, human hepatic microsomes from 15 individuals; tissue CellzDirect (Durham, NC, USA) or XenoTech LLC (Lenexa, KS, USA); host or cells: pooled human liver microsomes (15 donors)
T5 sequence (P10635 whole entry): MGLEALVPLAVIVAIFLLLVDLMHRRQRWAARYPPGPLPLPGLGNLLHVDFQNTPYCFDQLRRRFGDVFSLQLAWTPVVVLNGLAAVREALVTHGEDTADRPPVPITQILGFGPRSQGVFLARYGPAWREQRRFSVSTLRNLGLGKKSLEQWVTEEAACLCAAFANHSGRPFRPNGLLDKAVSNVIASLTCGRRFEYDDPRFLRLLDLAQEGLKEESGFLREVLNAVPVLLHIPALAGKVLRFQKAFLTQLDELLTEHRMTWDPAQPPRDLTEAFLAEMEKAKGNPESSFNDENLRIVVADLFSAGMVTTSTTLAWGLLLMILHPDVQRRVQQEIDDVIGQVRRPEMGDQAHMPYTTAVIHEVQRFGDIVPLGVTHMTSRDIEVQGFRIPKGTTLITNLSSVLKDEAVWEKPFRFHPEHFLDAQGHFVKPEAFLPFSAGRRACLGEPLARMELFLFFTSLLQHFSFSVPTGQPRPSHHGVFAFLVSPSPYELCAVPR
The experiment in a line: Automated time-dependent inhibition assay in HLM. It counts as in vitro ADME. The settings on record: EBO 30 and 50 µM, 30 min preincubation with NADPH. The protocol:
as §2

The structures appear in SMILES notation. Read-outs that look alike come from different tables or passages of the source.

As for `NC[C@H]1OB(O)c2c(OCCC(=O)O)cccc21` [M3], on BCRP, the “Concentration in the receiver compartment” value is reported as “below the lower limit of quantification” and the “as a Substrate” value was “No”. Besides, the IC50 (in general, the point on the concentration scale where inhibition reaches its midpoint) on MATE2K was > 250 µM. Further, the IC50 on MATE1 was > 250 µM.
Turning to `NC[C@H]1OB(O)c2c(OCCCO)cccc21` [EBO, Epetraborole], the Papp A→B (in general, the apparent permeability from the apical to the basolateral side of a cell layer) in data set [1] was ≤ 0.31 ×10⁻⁶ cm/s. Also, in data set [1], the Papp B→A – broadly, how fast a substance crosses the layer from the basolateral side – was ≤ 0.35 ×10⁻⁶ cm/s. Moreover, the “Permeability (in words)” value in the data set on Caco-2 cell monolayers is on record as “low permeability”. At BCRP, the “Concentration in the receiver compartment” value is “below the lower limit of quantification”. Further, the “as a Substrate” value on BCRP was “No”. The IC50 at MATE2K and at MATE1 was > 100 µM each time. Besides, the Time-dependent inhibition result in the data set with CYP3A4 and on CYP2D6 was “No time-dependent inhibition” each time. Also, the P-gp substrate result on P-gp [2] (Caco-2, efflux ratio without/with P-gp inhibitor) was “not a P-gp substrate”. In addition, the “efflux ratio” value on P-gp [2] (vehicle (no P-gp inhibitor), listed as 14C-EBO) is <2; at P-gp [2] (human, with cyclosporine A (10 µM), Cyclosporine A (10 µM), read-out: Efflux Ratio), < 2; on P-gp [2] (human, with verapamil (100 µM), Verapmil (100 µM), read-out: Efflux Ratio) it was < 2; on P-gp [2] (human, vehicle (no P-gp inhibitor), read-out: Efflux Ratio) it was < 2. The “Inhibition of P-gp-mediated transport of digoxin” value at P-gp [3] is “not a significant inhibitor”. Moreover, at P-gp [3] (EBO 100 µM), the “Efflux ratio of digoxin in the presence of test article” value is “unchanged”. In addition, the “Substrate for major CYP enzymes (stability studies)” value in the data set on major CYP enzymes is “poor substrate”.

These data come from paper PMC10818931, “In Vitro Evaluation of Drug–Drug Interaction Potential of Epetraborole, a Novel Bacterial Leucyl-tRNA Synthetase Inhibitor” (Pharmaceuticals, 2024).
